Laboratory results: patent US5206254A, “β-carbonyl-carboxyamides of 1,3-thiazolidines” (Boehringer Mannheim Italia S.p.A., priority 1988, dated 1993)
Where a name gives a salt, the structure may show the parent alone.

Experiments:
[1] = tested on: cough strokes; experiment: Long lasting persistence of the antitussive action; format: in vivo, guinea pig; conditions: 30 mg/Kg os
Excerpt: (§1) Cough strokes are provoked by electrical stimulation of the guinea pig tracheal mucosa. according to Cavanaugh et al., (Arch. Ing. Pharmacodyn., 220, 258, 1976). Cough strokes are stimulated both before (i.e. in the absence of drug treatment) and one hour after the drug administration. […] A group of six animals is used at each dose level; this test is particularly useful for the evaluation of long lasting effects until and after three hours from the administration.
The results showing the long lasting persistance of the antitussive action is reported in Table 3 in comparison with codeine phosphate; all the substances are administered at 30 mg/Kg by oral route.

[2] = tested on: airways hyperreactivity, pulmonary inflation pressure (PIP); experiment: Airway hyperreactivity (PIP increase after autacoid challenge) after tobacco smoke exposure; format: in vivo, guinea pig (male); conditions: for prevention/inhibition of airway hyperreactivity (words): compounds: oral 20-60, i.v. 0.25-5, s.c. 2-15 mg/Kg, 6 MPHE 10-50 mg/Kg i.m., DSCG 20-100 mg/Kg i.m., salbutamol 0.5 mg/Kg i.v.
Method: In order to show this surprising pharmacological property, the compounds of the invention were tested in a bronchial hyperreactivity animal model recently developed (see Omini C. et al., 23rd Ann. Med: S.E.P.C.R., Athens 20-24th June 1988, Abstract 15S Eur. J. Resp. Dis. in press).
The airways hyperreactivity is measured as abnormal increase of the pulmonary inflation pressure (PIP) caused by the exacerbate bronchconstrictive response that follows to an autocoid challenge after active forced tobacco smoke exposure for a 10 minutes period. The abnormal PIP increase is compared with the PIP increase observed, in the same animal, before tobacco smoke, and after autacoids challenge. Male guinea pigs (400-450 g b.w.) anaesthetized with ethylurethane and pancuronium bromide were used; the recording of PIP is performed in accordance with Konzett and Rossler methods (Naumm. Schiedeberg Arch. Exp. Path/Pharmacol. 195, 71, 1940). To evidentiate such bronchial smooth muscle hyperreactivity suitable autocoids are acetylcholine, histamine, serotonine, bradykinins.
Male guinea pigs (400-450 g) are anaesthetized with ethylurethane (i.p.) and pancuronium bromide (i.v.): the trachea is cannulated and the lungs are ventilated at constant volume by connection with "Rodent respirator" Basile apparatus mod. 7025. The pulmonary inflation pressure (PIP) is measured by connection to a side-warm of the tracheal cannula of a Bell and Howell pressure transducer (mod. P 17570) that is connected to a Beckmann (mod. R 611) dynograph. The right jugular vein is catheterized for i.v. injection of autacoids and drugs. The pharmacological experiment starts with the treatment of the animal with the autocoids (for example acetylcholine by i.v. route in the interval 2.5-10 mcg/kg) in order to induce a reversible bronchoconstruction response, measured by an increase of the pulmonary inflation pressure (PIP). This increase is recorded and it is considered to represent the basal value of the animal bronochoconstrictor response to the challenge with the autocoid.
The animal is then actively exposed for a 10 minutes time period to the tobacco smoke of alighted cigarette (directly inspired by the animal). Afterwards the animal is challenged again with the autocoid, using the dosage previously injected for evokating the basal bronchoconstrictor response. The novel challenge induces an exacerbate bronochoconstrictory response and the airway hyper-reactivity is measured as the differential increase in the PIP after tobacco smoke exposure in respect to the basal value. The challenge may be repeated in the time, (2-3 hours after smoke exposure, too) until reproducible hyper-reactive responses are obtained or at different time from tobacco exposure.
(§2) A substance may be administered by i.v., oral, subcutaneous or intramuscular route at different times before tobacco smoke exposure. A compound is considered effective when it is able to prevent almost completely the exacerbate differential increase in the PIP and normalize the BAL cell cytologic pattern at the same dose level.
Differential increases of the pulmonary inflation pressure over the basal value after autacoid challenges, ranging from 150-200% are observed after smoke exposure in the animal control group (i.e. in the absence of any pharmacological treatment).
Drug treatment may be performed using different routes: intravenous, oral, subcutaneous and/or intramuscular; the substances may be administered at different times before smoke exposure and at different dose levels.
Dose related responses have been determined for reference drugs such as 6β-methyl-prednisolone-21-hemisuccinate sodium salt (6MPHE, by i.m. route, 7 hrs. b.s.l.), sodium dichromoglycate (DSCG, by i.m. route, 2 hrs. b.s.e.) and salbutamol (by i.v. route, 20 minutes before smoke exposure); the results reported in table 4, are expressed as % protection from hyperreactive reaction. […]

[3] = Acute toxicity (LD50) in rats, oral; conditions: rat, in vivo, 14th day of observation, read-out: DL50
Method: The compounds of the invention are therapeutically useful substances, practically free of acute, subacute or chronic toxic effects. LD50 values, usually exceeding 1 g/kg body weight are measured in mice and in rats after oral and intraperitoneal (i.p.) administration of the compounds of the invention. Only N-diethylaminoethylamino, N'-[(R,S)-2-(2-methoxyphenoxymethyl)-1,3-thiazolidine]-malondiamide and N-β-pyridylmethylamino-N'-[(R,S)-2-(2-methoxy-phenoxy-methyl)-1,3-thiazolidine]-malondiamide show DL50 values of 0.25 and 0.85 g/Kg respectively after oral administration to rats at the 14th day of observation.

[4] = tested on: cough strokes provoked by electrical stimulation of the guinea pig tracheal mucosa; experiment: Electrically stimulated cough stroke test (Cavanaugh et al.); format: in vivo; conditions: for Percent reduction of cough strokes: 15 mg/kg os, one hour after drug
Excerpt: Table 2 refers to results with the compounds of formula (I) in the electrically stimulated cough stroke test, in comparison with codeine phosphate.
as §1

[5] = tested on: cytologic pattern of BAL fluids; experiment: Cytology of bronchoalveolar lavage (BAL) fluids after tobacco smoke exposure; format: in vivo, guinea pig (male); conditions: smoke-exposed animals; 6 MPHE 50 mg/Kg, DSCG 100 mg/Kg, salbutamol 0.5 mg/Kg
Excerpt: Cytologic studies of the bronochoalveolar lavage (BAL) fluids of the animals, exposed to tobacco smoke and untreated with drugs, show a statistically significant increase of the overall cell counts. Specifically, the number of epithelial cells and of eosinophils is increased, in respect to the cell content of unexposed animals.
At the end of the experiment and/or at a desired time after smoke exposure, the animal is disconnected, and the broncho-alveolar contents are examined by lavages, injecting in the trachea physiological […] solutions (10 ml×3 times). These BAL fluids are combined, centrifuged for 15 minutes at 150 g to give pellets that are suspended in physiological saline (1 ml). The total cell number of BAL fluid is counted in a Burcher camera.
Differential cell counts are made from centrifugated preparations stained with Diff-Quick® counting at least 300 cells for each sample and the % number of epithelial cells, eosinophils, neutrophils, lymphocytes and macrophages are determined.
as §2

[6] = tested on: cough strokes, evokated by the two experimental models; experiment: In vivo experiments with naloxone in the two cough models; design: species or system guinea pig

| Compound | Percentage reduction of cough strokes during treatment, 1 h [1] [%] | Percentage reduction of cough strokes during treatment, 2 h [1] [%] | Percentage reduction of cough strokes during treatment, 3 h [1] [%] | prevention/inhibition of airway hyperreactivity (words) [2] | Percent reduction of cough strokes [4] [%] | further results |
| --- | --- | --- | --- | --- | --- | --- |
| COc1ccccc1OCC1SCCN1C(=O)CC(=O)NCc1cccnc1 (stereo not shown) | 80 | 67 | 60 |  |  |  |
| COc1ccccc1OCC1SCCN1C(=O)CC(=O)O (racemic) [Compound 10, (R,S)-2-(2-methoxy-phenoxymethyl)-3-carboxyacetyl-1,3-thiazolidine] |  |  |  | effective inhibitors of the hyperreactive reaction |  |  |
| CNC(=O)CC(=O)N1CCSC1COc1ccccc1OC (racemic) [Compound 11, N-methylamino-N-[(R,S)-2-(2-methoxy-phenoxymethyl)-1,3-thiazolidine]-malondiamide] | 24 | 48 | 60 |  |  |  |
| CCN(CC)CCNC(=O)CC(=O)N1CCSC1COc1ccccc1OC (racemic) [Example 14, N-(diethylaminoethyl), N'-[(R,S)-2-(2-methoxy-phenoxymethyl)-1,3-thiazolidine]-malondiamide] |  |  |  |  |  | LD50 at 336 h [3]: 250 mg/kg |
| COc1ccccc1OCC1SCCN1C(=O)CC(=O)NCc1cccnc1 (racemic) [Table 5 3, N-β-pyridylmethyl, N'-[(R,S)-2-(2-methoxy-phenoxymethyl)-1,3-thiazolidine]-malondiamide] |  |  |  | effective inhibitors of the hyperreactive reaction |  | LD50 at 336 h [3]: 850 mg/kg |
| COc1ccc2c3c1O[C@H]1[C@@H](O)C=C[C@H]4[C@@H](C2)N(C)CC[C@@]341 [Codeine phosphate, reference compound] | 77 | 53 | 46 |  | 58 |  |
| C[C@H]1C[C@@H]2[C@H]([C@@H](O)C[C@@]3(C)[C@H]2CC[C@]3(O)C(=O)COC(=O)CCC(=O)O)[C@@]2(C)C=CC(=O)C=C12 [Compound 6MPHE, 6α-methyl-prednisolone-21-hemisuccinatesodium salt] |  |  |  | preventing airway hyperreactivity |  | % protection from hyperreactive reaction ([2]; 6MPHE 10 mg/kg i.m., 7 hrs before smoke exposure): 65%; % protection from hyperreactive reaction ([2]; 6MPHE 25 mg/kg i.m., 7 hrs before smoke exposure): 85%; % protection from hyperreactive reaction ([2]; 6MPHE 50 mg/kg i.m., 7 hrs before smoke exposure): 100%; prevention/inhibition of airway hyperreactivity (words) ([2]; listed as 6α-methyl-prednisolone- 21-hemisuccinatesodium salt (6 MPHE)): effective; normalization of BAL fluid cytology [5]: able to normalize the cellular pattern in the BAL fluids |
| O=C(O)c1cc(=O)c2c(OCC(O)COc3cccc4oc(C(=O)O)cc(=O)c34)cccc2o1 [DSCG] |  |  |  | preventing airway hyperreactivity |  | % protection from hyperreactive reaction ([2]; DSCG 25 mg/kg i.m., 2 hrs before smoke exposure): 27%; % protection from hyperreactive reaction ([2]; DSCG 50 mg/kg i.m., 2 hrs before smoke exposure): 64%; % protection from hyperreactive reaction ([2]; DSCG 100 mg/kg i.m., 2 hrs before smoke exposure): 100%; prevention/inhibition of airway hyperreactivity (words) ([2]; listed as Dichromoglycate (DSCG)): effective; normalization of BAL fluid cytology [5]: able to normalize the cellular pattern in the BAL fluids |
| CC(C)(C)NCC(O)c1ccc(O)c(CO)c1 (stereo not shown) [Salbutamol] |  |  |  | effective |  | % protection from hyperreactive reaction ([2]; Salbutamol 5 mg/kg i.v., 20 minutes before smoke exposure): 90%; normalization of BAL fluid cytology [5]: fails to modify the smoke induced pathological changes of the BAL fluid cytology |
| C=CCN1CC[C@]23c4c5ccc(O)c4O[C@H]2C(=O)CC[C@@]3(O)[C@H]1C5 [naloxone, reference compound] |  |  |  |  |  | protection against cough strokes by naloxone alone ([6]; 5 mg/kg s.c., both experimental models): unable to protect guinea pig against cough strokes |
| (+)-[2-(2-methoxyphenoxymethyl)-3-ethoxycarbonyl]-1,3-thiazolidine [Compound 8] |  |  |  |  | 63 | ED50 ([4]; os, electrical stimulation (Table II)): 12 mg/kg |
| (R,S)-2-(2-methoxy-phenoxymethyl)-3-(3-oxo-butanoyl)-1,3-thiazolidine [Compound 6] |  |  |  |  | 14 |  |
| (R,S)-2-(2-methoxy-phenoxymethyl)-3-ethoxycarbonylacetyl-1,3-thiazolidine [Compound 7] | 70 | 60 | 40 |  | 18 | protective effect after naloxone pretreatment ([6]; naloxone 5 mg/Kg s.c. pretreatment, substance 30 mg/Kg os): complete protection against cough strokes; prevention/inhibition of airway hyperreactivity (words) ([2]; listed as (R,S)-2-(2-methoxyphenoxymethyl)-3-ethoxycarbonylacetyl-1,3-thiazolidine): highly effective; prevention/inhibition of airway hyperreactivity (words) ([2]; listed as (R,S)-2-[2-methoxy-phenoxymethyl)-3-ethoxycarbonylacetyl-1,3-thiazolidine): effective inhibitors of the hyperreactive reaction |
